These molecules were tested on recombinant NL4-3 virus (Renilla luciferase in nef, Gag P373S) (assay: HIV Cell Culture Assay (luciferase reporter virus in MT-2 cells)). Settings: NL43.
Assay type: cell-based
Description: MT-2 cells and 293T cells were obtained from the NIH AIDS Research and Reference Reagent Program. MT-2 cells were propagated in RPMI 1640 media supplemented with 10% heat inactivated fetal bovine serum, […]. The 293T cells were propagated in DMEM media supplemented with 10% heat inactivated fetal bovine serum (FBS), 100 units/mL penicillin G and 100 μg/mL streptomycin. The proviral DNA clone of NL4-3 was obtained from the NIH AIDS Research and Reference Reagent Program. A recombinant NL4-3 virus, in which a section of the nef gene from NL4-3 was replaced with the Renilla luciferase gene, was used as a reference virus. In addition, residue Gag P373 was converted to P373S. Briefly, the recombinant virus was prepared by transfection of the altered proviral clone of NL4-3. Transfections were performed in 293T cells using LipofectAMINE PLUS from Invitrogen (Carlsbad, Calif.), according to manufacturer's instruction. The virus was titered in MT-2 cells using luciferase enzyme activity as a marker. Luciferase was quantitated using the Dual Luciferase kit from Promega (Madison, Wis.), with modifications to the manufacturer's protocol. The diluted Passive Lysis solution was pre-mixed with the re-suspended Luciferase Assay Reagent and the re-suspended Stop & Glo Substrate (2:1:1 ratio). Fifty (50) μL of the mixture was added to each aspirated well on assay plates and luciferase activity was measured immediately on a Wallac TriLux (Perkin-Elmer). Antiviral activities of inhibitors toward the recombinant virus were quantified by measuring luciferase activity in cells infected for 4-5 days with NLRluc recombinants in the presence serial dilutions of the inhibitor.

| SMILES | EC50 [µM] |
| --- | --- |
| CC(C)C1=C2[C@H]3CC[C@@H]4[C@@]5(C)CC=C(C6=CCC(C(=O)O)CC6)C(C)(C)[C@@H]5CC[C@@]4(C)[C@]3(C)CC[C@@]2(C(=O)NCCN2CCOCC2)CC1=O (stereo partly drawn) [Example 1, 4-((3aR,5aR,5bR,7aR,11aS,11bR,13aS)-1-isopropyl-5a,5b,8,8,11a-pentamethyl-3a-((2-morpholinoethyl)carbamoyl)-2-oxo-3,3a,4,5,5a,5b,6,7,7a,8,11,11a,11b,12,13,13a-hexadecahydro-2H-cyclopenta[a]chrysen-9-yl)cyclohex-3-enecarboxylic acid] | 0.00193 |
| CC(C)C1=C2[C@H]3CC[C@@H]4[C@@]5(C)CC=C(C6=CCC(C(=O)O)CC6)C(C)(C)[C@@H]5CC[C@@]4(C)[C@]3(C)CC[C@@]2(C(=O)NCCN2CCS(=O)(=O)CC2)CC1=O (stereo partly drawn) [Example 2, 4-((3aR,5aR,5bR,7aR,11aS,11bR,13aS)-3a((2-(1,1-dioxidothiomorpholino)ethyl)carbamoyl)-1-isopropyl-5a,5b,8,8,11a-pentamethyl-2-oxo-3,3a,4,5,5a,5b,6,7,7a,8,11,11a,11b,12,13,13a-hexadecahydro-2H-cyclopenta[a]chrysen-9-yl)cyclohex-3-enecarboxylic acid] | < 0.1 |
| CC(C)C1=C2[C@H]3CC[C@@H]4[C@@]5(C)CC=C(c6ccc(C(=O)O)cc6)C(C)(C)[C@@H]5CC[C@@]4(C)[C@]3(C)CC[C@@]2(C(=O)O)CC1=O [Example 3, (3aR,5aR,5bR,7aR,11aS,11bR,13aS)-9-(4-carboxyphenyl)-1-isopropyl-5a,5b,8,8,11a-pentamethyl-2-oxo-3,3a,4,5,5a,5b,6,7,7a,8,11,11a,11b,12,13,13a-hexadecahydro-2H-cyclopenta[a]chrysene-3a-carboxylic acid] | < 0.1 |
| CC(C)C1=C2[C@H]3CC[C@@H]4[C@@]5(C)CC=C(C6=CCC(C(=O)O)CC6)C(C)(C)[C@@H]5CC[C@@]4(C)[C@]3(C)CC[C@@]2(C(=O)O)CC1=O (stereo partly drawn) [Example 4, (3aR,5aR,5bR,7aR,11aS,11bR,13aS)-9-(4-carboxycyclohex-1-en-1-yl)-1-isopropyl-5a,5b,8,8,11a-pentamethyl-2-oxo-3,3a,4,5,5a,5b,6,7,7a,8,11,11a,11b,12,13,13a-hexadecahydro-2H-cyclopenta[a]chrysene-3a-carboxylic acid] | < 0.1 |
| CC(C)C1=C2[C@H]3CC[C@@H]4[C@@]5(C)CC=C(C6=CC[C@](CF)(C(=O)O)CC6)C(C)(C)[C@@H]5CC[C@@]4(C)[C@]3(C)CC[C@@]2(C(=O)O)CC1=O [Example 5, (3aR,5aR,5bR,7aR,11aS,11bR,13aS)-9-((S)-4-carboxy-4-(fluoromethyl)cyclohex-1-en-1-yl)-1-isopropyl-5a,5b,8,8,11a-pentamethyl-2-oxo-3,3a,4,5,5a,5b,6,7,7a,8,11,11a,11b,12,13,13a-hexadecahydro-2H-cyclopenta[a]chrysene-3a-carboxylic acid] | < 0.1 |
| CC(C)C1=C2[C@H]3CC[C@@H]4[C@@]5(C)CC=C(C6=CCC(C(=O)O)CC6)C(C)(C)[C@@H]5CC[C@@]4(C)[C@]3(C)CC[C@@]2(NCCN2CCS(=O)(=O)CC2)CC1=O (stereo partly drawn) [Example 6, 4-((3aR,5aR,5bR,7aR,11aS,11bR,13aS)-3a-((2-(1,1-dioxidothiomorpholino)ethyl)amino)-1-isopropyl-5a,5b,8,8,11a-pentamethyl-2-oxo-3,3a,4,5,5a,5b,6,7,7a,8,11,11a,11b,12,13,13a-hexadecahydro-2H-cyclopenta[a]chrysen-9-yl)cyclohex-3-enecarboxylic acid] | < 0.1 |
| CC(C)C1=C2[C@H]3CC[C@@H]4[C@@]5(C)CC=C(C6=CCC(C(=O)O)CC6)C(C)(C)[C@@H]5CC[C@@]4(C)[C@]3(C)CC[C@@]2(N)CC1=O (stereo partly drawn) [Example 7, 4-((3aR,5aR,5bR,7aR,11aS,11bR,13aS)-3a-amino-1-isopropyl-5a,5b,8,8,11a-pentamethyl-2-oxo-3,3a,4,5,5a,5b,6,7,7a,8,11,11a,11b,12,13,13a-hexadecahydro-2H-cyclopenta[a]chrysen-9-yl)cyclohex-3-enecarboxylic acid] | 0.000973 |
| CC(C)C1=C2[C@H]3CC[C@@H]4[C@@]5(C)CC=C(C6=CC[C@](CF)(C(=O)O)CC6)C(C)(C)[C@@H]5CC[C@@]4(C)[C@]3(C)CC[C@@]2(N)CC1=O [Example 8, (S)-4-((3aR,5aR,5bR,7aR,11aS,11bR,13aS)-3a-amino-1-isopropyl-5a,5b,8,8,11a-pentamethyl-2-oxo-3,3a,4,5,5a,5b,6,7,7a,8,11,11a,11b,12,13,13a-hexadecahydro-2H-cyclopenta[a]chrysen-9-yl)-1-(fluoromethyl)cyclohex-3-enecarboxylic acid] | < 0.1 |
| CC(C)C1=C2[C@H]3CC[C@@H]4[C@@]5(C)CC=C(C6=CC[C@](CF)(C(=O)O)CC6)C(C)(C)[C@@H]5CC[C@@]4(C)[C@]3(C)CC[C@@]2(NCCN2CCS(=O)(=O)CC2)CC1=O [Example 9, (S)-4-((3aR,5aR,5bR,7aR,11aS,11bR,13aS)-3a-((2-(1,1-dioxidothiomorpholino)ethyl)amino)-1-isopropyl-5a,5b,8,8,11a-pentamethyl-2-oxo-3,3a,4,5,5a,5b,6,7,7a,8,11,11a,11b,12,13,13a-hexadecahydro-2H-cyclopenta[a]chrysen-9-yl)-1-(fluoromethyl)cyclohex-3-enecarboxylic acid] | < 0.1 |
| CC(C)C1=C2[C@H]3CC[C@@H]4[C@@]5(C)CC=C(C6=CC[C@](CF)(C(=O)O)CC6)C(C)(C)[C@@H]5CC[C@@]4(C)[C@]3(C)CC[C@@]2(N(CCN2CCS(=O)(=O)CC2)CCN2CCS(=O)(=O)CC2)CC1=O [Example 10, (S)-4-((3aR,5aR,5bR,7aR,11aS,11bR,13aS)-3a-(bis(2-(1,1-dioxidothiomorpholino)ethyl)amino)-1-isopropyl-5a,5b,8,8,11a-pentamethyl-2-oxo-3,3a,4,5,5a,5b,6,7,7a,8,11,11a,11b,12,13,13a-hexadecahydro-2H-cyclopenta[a]chrysen-9-yl)-1-(fluoromethyl)cyclohex-3-enecarboxylic acid] | < 0.1 |
| CC(C)C1=C2[C@H]3CC[C@@H]4[C@@]5(C)CC=C(C6=CC[C@](CF)(C(=O)O)CC6)C(C)(C)[C@@H]5CC[C@@]4(C)[C@]3(C)CC[C@@]2(NCCN2CCC(S(C)(=O)=O)CC2)CC1=O [Example 11, (S)-1-(fluoromethyl)-4-((3aR,5aR,5bR,7aR,11aS,11bR,13aS)-1-isopropyl-5a,5b,8,8,11a-pentamethyl-3a-((2-(4-(methylsulfonyl)piperidin-1-yl)ethyl)amino)-2-oxo-3,3a,4,5,5a,5b,6,7,7a,8,11,11a,11b,12,13,13a-hexadecahydro-2H-cyclopenta[a]chrysen-9-yl)cyclohex-3-enecarboxylic acid] | < 0.1 |
| CC(C)C1=C2[C@H]3CC[C@@H]4[C@@]5(C)CC=C(C6=CC[C@](CF)(C(=O)O)CC6)C(C)(C)[C@@H]5CC[C@@]4(C)[C@]3(C)CC[C@@]2(NCC[N+]2(CCN3CCC(S(C)(=O)=O)CC3)CCC(S(C)(=O)=O)CC2)CC1=O (stereo partly drawn) [Example 12, 1-(2-(((3aR,5aR,5bR,7aR,11aS,11bR,13aS)-9-((S)-4-carboxy-4-(fluoromethyl)cyclohex-1-en-1-yl)-1-isopropyl-5a,5b,8,8,11a-pentamethyl-2-oxo-3,3a,4,5,5a,5b,6,7,7a,8,11,11a,11b,12,13,13a-hexadecahydro-2H-cyclopenta[a]chrysen-3a-yl)amino)ethyl)-4-(methylsulfonyl)-1-(2-(4-(methylsulfonyl)piperidin-1-yl)ethyl)piperidin-1-ium] | < 0.1 |
| CC(C)C1=C2[C@H]3CC[C@@H]4[C@@]5(C)CC=C(C6=CC[C@](CF)(C(=O)O)CC6)C(C)(C)[C@@H]5CC[C@@]4(C)[C@]3(C)CC[C@@]2(CNCCCN2CCS(=O)(=O)CC2)CC1=O [Example 13] | < 0.1 |
| CC(C)C1=C2[C@H]3CC[C@@H]4[C@@]5(C)CC=C(c6ccc(C(=O)O)cc6)C(C)(C)[C@@H]5CC[C@@]4(C)[C@]3(C)CC[C@@]2(C(O)CNCCN(C)C)CC1=O (stereo partly drawn) [Example 14, 4-((3aR,5aR,5bR,7aR,11aS,11bR,13aS)-3a-(2-((2-(dimethylamino)ethyl)amino)-1-hydroxyethyl)-1-isopropyl-5a,5b,8,8,11a-pentamethyl-2-oxo-3,3a,4,5,5a,5b,6,7,7a,8,11,11a,11b,12,13,13a-hexadecahydro-2H-cyclopenta[a]chrysen-9-yl)benzoic acid] | 0.00536 |
| CC(C)C1=C2[C@H]3CC[C@@H]4[C@@]5(C)CC=C(C6=CCC(C(=O)O)CC6)C(C)(C)[C@@H]5CC[C@@]4(C)[C@]3(C)CC[C@@]2(C(O)CN(CCN(C)C)Cc2ccc(Cl)cc2)CC1=O (stereo partly drawn) [Example 15, 4-((3aR,5aR,5bR,7aR,11aS,11bR,13aS)-3a-(2-((4-chlorobenzyl)(2-(dimethylamino)ethyl)amino)-1-hydroxyethyl)-1-isopropyl-5a,5b,8,8,11a-pentamethyl-2-oxo-3,3a,4,5,5a,5b,6,7,7a,8,11,11a,11b,12,13,13a-hexadecahydro-2H-cyclopenta[a]chrysen-9-yl)cyclohex-3-enecarboxylic acid] | < 0.1 |

Reference: patent US9969767B2, “Oxolupene derivatives” (priority 2014, dated 2018)
